Measurements published in patent EP4603105A1, “PHARMACEUTICAL COMPOSITION CONTAINING CYCLIC COMPOUND HAVING SELECTIVE KRAS INHIBITORY EFFECT AGAINST HRAS AND NRAS” (CHUGAI SEIYAKU KABUSHIKI KAISHA, priority 2022, dated 2024).
Where a SMILES comes first, the peptide text is derived from it. Bridges are numbered along the chain shown (N, C = ends). [ ]: non-standard residue; d: D form. The star is where a group is joined. hPhe(3-Cl-4-CF3) = N[C@@H](CCc1ccc(C(F)(F)F)c(Cl)c1)C(=O)O; NPrPhe(4-CF3) = CCCN[C@@H](Cc1ccc(C(F)(F)F)cc1)C(=O)O; NMeGly(cPent) = CN[C@H](C(=O)O)C1CCCC1; Pro(4,4-F2) = O=C(O)[C@@H]1CC(F)(F)CN1; Aze(3S-Me) = C[C@H]1CN[C@@H]1C(=O)O; Piperidide(4-Me) = CC1CCN(*)CC1; NMeD = CN[C@@H](CC(=O)O)C(=O)O; NMeL = CN[C@@H](CC(C)C)C(=O)O; Azetidin(1-yl) = C1CN(*)C1; Morpholide = C1CN(*)CCO1; NMeA = CN[C@@H](C)C(=O)O; Ac5c = NC1(C(=O)O)CCCC1; Aze = O=C(O)[C@@H]1CCN1; Sar = CNCC(=O)O

Tests used:
[1] = target: GDP-bound NRAS wild-type protein (Homo sapiens, UniProt P01111); experiment: Binding to NRAS by surface plasmon resonance (SPR), KD and KD ratio to KRAS
GDP-bound NRAS wild-type protein, sequence (P01111 whole entry): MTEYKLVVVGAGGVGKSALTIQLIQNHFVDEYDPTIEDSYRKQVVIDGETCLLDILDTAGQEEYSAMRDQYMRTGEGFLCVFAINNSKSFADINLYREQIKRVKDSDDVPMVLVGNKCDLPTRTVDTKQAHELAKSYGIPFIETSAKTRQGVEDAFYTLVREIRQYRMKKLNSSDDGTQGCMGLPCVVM
Method in brief: (§1)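 Biotinylated GDP-bound RAS was captured at about 100–300 RU. Running buffer: HBS pH 7.4, 10 mM MgCl2, 10 µM GDP, 1 mM DTT, 0.01% Tween 20, 4% DMSO.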

HRAS wild-type protein = HRAS wild-type protein (Homo sapiens, UniProt P01112); experiment: Binding to HRAS by surface plasmon resonance (SPR), KD and KD ratio to KRAS
HRAS wild-type protein, sequence (P01112 whole entry): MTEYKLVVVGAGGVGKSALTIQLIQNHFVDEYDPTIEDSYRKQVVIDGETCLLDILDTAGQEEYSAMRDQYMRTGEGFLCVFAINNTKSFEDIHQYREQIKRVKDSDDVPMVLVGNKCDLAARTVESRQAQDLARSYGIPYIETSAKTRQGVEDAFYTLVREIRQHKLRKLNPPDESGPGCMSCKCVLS
Method in brief: as §1

[2] = tested on: human lung cancer strain NCI-H441; type: cell-based
Method in brief: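 Step one: dispense the test compound in serial DMSO dilutions. Step three: add the reagent and measure […].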

[3] = ratio of KD for GDP-bound NRAS wild-type protein to KD for KRAS
[4] = ratio of KD for HRAS wild-type protein to KD for KRAS

| Structure (SMILES) | IC50 [2] | NRAS /KRAS [1, 3] | HRAS /KRAS (HRAS wild-type protein; [4]) | further results |
| --- | --- | --- | --- | --- |
| CCCN1C(=O)[C@@H]2CCN2C(=O)[C@H](C)N(C)C(=O)[C@H]([C@@H](C)CC)NC(=O)[C@H](CC(C)C)N(C)C(=O)C[C@@H](C(=O)N2CCC(C)CC2)N(C)C(=O)[C@H](C2CCCC2)N(C)C(=O)C2(CCCC2)NC(=O)[C@@H]2CCCN2C(=O)[C@H](CCc2ccc(C(F)(F)F)c(Cl)c2)NC(=O)CN(C)C(=O)[C@@H]1Cc1ccc(C(F)(F)F)cc1 [PP0185] ([NMeL]I[NMeA][Aze][NPrPhe(4-CF3)][Sar][hPhe(3-Cl-4-CF3)]P[Ac5c][NMeGly(cPent)][NMeD]-{Piperidide(4-Me)}; lactam N-11) | 32.2 nM | C (A compound having a KD ratio of 0.1 or more and less than 3 is denoted as C) | B (a compound having 3 or more and less than 10 is denoted as B) |  |
| CCCN1C(=O)CN(C)C(=O)CN(C)C(=O)[C@H]([C@@H](C)CC)NC(=O)[C@H](CC(C)C)N(C)C(=O)C[C@@H](C(=O)N2CCC2)N(C)C(=O)[C@H](C2CCCC2)N(C)C(=O)C2(CCCC2)NC(=O)[C@@H]2CCCN2C(=O)[C@H](CCc2ccc(C(F)(F)F)c(Cl)c2)NC(=O)CN(C)C(=O)[C@@H]1Cc1ccc(C(F)(F)F)cc1 [PP0172] ([NMeL]I[Sar][Sar][NPrPhe(4-CF3)][Sar][hPhe(3-Cl-4-CF3)]P[Ac5c][NMeGly(cPent)][NMeD]-{Azetidin(1-yl)}; lactam N-11) | 3.8 nM | B (a compound having 3 or more and less than 10 is denoted as B) | C (A compound having a KD ratio of 0.1 or more and less than 3 is denoted as C) |  |
| CCCN1C(=O)CN(C)C(=O)CNC(=O)[C@H]([C@@H](C)CC)NC(=O)[C@H](CC(C)C)N(C)C(=O)C[C@@H](C(=O)N2CCOCC2)NC(=O)[C@H](C2CCCC2)N(C)C(=O)C2(CCCC2)NC(=O)[C@@H]2CCCN2C(=O)[C@H](CCc2ccc(C(F)(F)F)c(Cl)c2)NC(=O)CN(C)C(=O)[C@@H]1Cc1ccc(C(F)(F)F)cc1 [PP0325] ([NMeL]IG[Sar][NPrPhe(4-CF3)][Sar][hPhe(3-Cl-4-CF3)]P[Ac5c][NMeGly(cPent)]D-Morpholide; lactam N-11) | 163 nM | B (a compound having 3 or more and less than 10 is denoted as B) | B (a compound having 3 or more and less than 10 is denoted as B) |  |
| CCC[C@H]1C(=O)N[C@@H]([C@@H](C)CC)C(=O)N2CCC[C@H]2C(=O)N(C)[C@H]2C/C=C\CCN(C2=O)[C@@H](Cc2ccc(C(F)(F)F)cc2)C(=O)N(C)CC(=O)N[C@@H](CCc2ccc(C(F)(F)F)c(OC)c2)C(=O)N2C[C@H](OCC)C[C@H]2C(=O)N(C)C2(CCC2)C(=O)N(C)[C@@H](C2CCCC2)C(=O)N(C)[C@H](C(=O)N2CCCCC2)CC(=O)N1C [PP3099] | 13.3 nM | A (a compound having 10 or more and less than 20 is denoted as A) | A (a compound having 10 or more and less than 20 is denoted as A) |  |
| CC[C@H](C)[C@@H]1NC(=O)[C@H](CC(C)C)N(C)C(=O)C[C@@H](C(=O)N2CCOCC2)N(C)C(=O)[C@H](C2CCCC2)N(C)C(=O)C2(CCC2)NC(=O)[C@@H]2[C@H](OC)CCN2C(=O)[C@H](CCc2cc(F)c(C(F)(F)F)c(F)c2)NC(=O)CN(C)C(=O)[C@H](Cc2ccc(C(F)(F)F)cc2)N2CCCCC[C@@H](C2=O)N(C)C(=O)CN(C)C1=O [PP1085] | 590 nM | A (a compound having 10 or more and less than 20 is denoted as A) | A (a compound having 10 or more and less than 20 is denoted as A) |  |
| CCCN(C)C(=O)[C@@H]1CC(=O)N(C)[C@@H](CC(C)C)C(=O)N[C@@H]([C@@H](C)CC)C(=O)N(C)CC(=O)N(C)[C@H]2C/C=C\CCN(C2=O)[C@@H](Cc2ccc(C(F)(F)F)cc2)C(=O)N(C)CC(=O)N[C@@H](CCc2cc(F)c(C(F)(F)F)c(F)c2)C(=O)N2C[C@H](OCC)C[C@H]2C(=O)NC2(CCC2)C(=O)N(C)[C@@H](C2CCCC2)C(=O)N1C [PP1387] | 15.3 nM |  |  | NRAS /KRAS ([1]; ratio of KD with respect to GDP-bound NRAS wild-type protein to KD with respect to KRAS): A (a compound having 10 or more and less than 20 is denoted as A); HRAS /KRAS (HRAS wild-type protein; ratio of KD with respect to HRAS wild-type protein to KD with respect to KRAS): B (a compound having 3 or more and less than 10 is denoted as B) |
| CCO[C@@H]1C[C@H]2C(=O)NC3(CC(C)(C)C3)C(=O)N(C)[C@@H](C3CCCC3)C(=O)N(C)[C@H](C(=O)N(CC)CC)CC(=O)N(C)[C@@H](CC)C(=O)N[C@@H]([C@@H](C)CC)C(=O)N(C)CC(=O)N(C)[C@H]3C/C=C\CCN(C3=O)[C@@H](Cc3ccc(C)cc3)C(=O)N(C)CC(=O)N[C@@H](CCc3ccc(C(F)(F)F)c(Cl)c3)C(=O)N2C1 [PP1883] | 24 nM |  |  | NRAS /KRAS ([1]; ratio of KD value for GDP-bound NRAS wild-type protein to KD value for KRAS (SPR)): A (a compound having 10 or more and less than 20 is denoted as A); HRAS /KRAS (HRAS wild-type protein; ratio of KD value for HRAS wild-type protein to KD value for KRAS (SPR)): A (a compound having 10 or more and less than 20 is denoted as A) |

Further lines, with some results ahead:

| IC50 [2] | Structure (SMILES) | NRAS /KRAS [1, 3] | HRAS /KRAS (HRAS wild-type protein; [4]) | further results |
| --- | --- | --- | --- | --- |
| 26.7 nM | CCO[C@@H]1C[C@H]2C(=O)NC3(CCC3)C(=O)N(C)[C@@H](C3CCCC3)C(=O)N(C)[C@H](C(=O)N(C)C)CC(=O)N(C)[C@@H](Cc3cccnc3)C(=O)N[C@@H]([C@@H](C)CC)C(=O)N(C)CC(=O)N(C)[C@H]3CCCCN(C3=O)[C@@H](Cc3ccc(C(F)(F)F)cc3)C(=O)N(C)CC(=O)N[C@@H](CCc3cc(F)c(C(F)(F)F)c(F)c3)C(=O)N2C1 [PP0703] |  |  | NRAS /KRAS ([1]; ratio of the KD value with respect to GDP-bound NRAS wild-type protein to the KD value with respect to KRAS): C (A compound having a KD ratio of 0.1 or more and less than 3 is denoted as C); HRAS /KRAS (HRAS wild-type protein; ratio of the KD value with respect to HRAS wild-type protein to the KD value with respect to KRAS): B (a compound having 3 or more and less than 10 is denoted as B) |
| 3.5 nM | CCCN1C(=O)[C@@H]2[C@@H](C)CN2C(=O)[C@H](C)N(C)C(=O)[C@H]([C@@H](C)CC)NC(=O)[C@H](CC(C)C)N(C)C(=O)C[C@@H](C(=O)N2CCOCC2)N(C)C(=O)[C@H](C2CCCC2)N(C)C(=O)C2(CCCC2)NC(=O)[C@@H]2CCCN2C(=O)[C@H](CCc2ccc(C(F)(F)F)c(Cl)c2)NC(=O)CN(C)C(=O)[C@@H]1Cc1ccc(C(F)(F)F)cc1 [PP0141] ([NMeL]I[NMeA][Aze(3S-Me)][NPrPhe(4-CF3)][Sar][hPhe(3-Cl-4-CF3)]P[Ac5c][NMeGly(cPent)][NMeD]-Morpholide; lactam N-11) | C (A compound having a KD ratio of 0.1 or more and less than 3 is denoted as C) | B (a compound having 3 or more and less than 10 is denoted as B) |  |
| 18 nM | CCO[C@@H]1C[C@H]2C(=O)NC3(CCC3)C(=O)N(C)[C@@H](C3CCCC3)C(=O)N(C)[C@H](C(=O)N(C)C)CC(=O)N(C)[C@@H](CC)C(=O)N[C@@H]([C@@H](C)CC)C(=O)N(C)CC(=O)N(C)[C@H]3C[C@@H](C)CCN(C3=O)[C@@H](Cc3ccc(C(F)(F)F)cc3)C(=O)N(C)CC(=O)N[C@@H](CCc3cc(F)c(C(F)(F)F)c(F)c3)C(=O)N2C1 [PP1020] | C (A compound having a KD ratio of 0.1 or more and less than 3 is denoted as C) | B (a compound having 3 or more and less than 10 is denoted as B) |  |
| 90.3 nM | CCO[C@@H]1C[C@H]2C(=O)NC3(CCC3)C(=O)N(C)[C@@H](CC(F)F)C(=O)N(C)[C@H](C(=O)N3CCOCC3)CC(=O)N(C)[C@@H](CC(C)C)C(=O)N[C@@H]([C@@H](C)CC)C(=O)N(C)CC(=O)N(C)[C@H]3CCCCN(C3=O)[C@@H](Cc3ccc(C(F)(F)F)cc3)C(=O)N(C)CC(=O)N[C@@H](CCc3cc(F)c(C(F)(F)F)c(F)c3)C(=O)N2C1 [PP0813] | C (A compound having a KD ratio of 0.1 or more and less than 3 is denoted as C) | B (a compound having 3 or more and less than 10 is denoted as B) |  |
| 59.1 nM | CCC[C@H]1C(=O)N[C@@H]([C@@H](C)CC)C(=O)N(C)CC(=O)N(C)[C@H]2C/C=C\CCN(C2=O)[C@@H](Cc2ccc(C)cc2)C(=O)N(C)CC(=O)N[C@@H](CCc2cc(F)c(C(F)F)c(F)c2)C(=O)N2C[C@H](OCC)C[C@H]2C(=O)NC2(CC(C)(C)C2)C(=O)N(C)[C@@H](C2CCCC2)C(=O)N(C)[C@H](C(=O)N(C)C)CC(=O)N1C [PP2782] | A (a compound having 10 or more and less than 20 is denoted as A) | A (a compound having 10 or more and less than 20 is denoted as A) |  |
| 57.1 nM | CCCN1C(=O)CN(C)C(=O)[C@@H]2CCN2C(=O)[C@H]([C@@H](C)CC)NC(=O)[C@H](CC(C)C)N(C)C(=O)C[C@@H](C(=O)N(C)C)NC(=O)[C@H](C2CCCC2)N(C)C(=O)C2(CCCC2)NC(=O)[C@@H]2CC(F)(F)CN2C(=O)[C@H](CCc2ccc(C(F)(F)F)c(Cl)c2)NC(=O)CN(C)C(=O)[C@@H]1Cc1ccc(C(F)(F)F)cc1 [PP0375] ([NMeL]I[Aze][Sar][NPrPhe(4-CF3)][Sar][hPhe(3-Cl-4-CF3)][Pro(4,4-F2)][Ac5c][NMeGly(cPent)]D-NMe2; lactam N-11) | B (a compound having 3 or more and less than 10 is denoted as B) | B (a compound having 3 or more and less than 10 is denoted as B) |  |
| 987 nM | CCO[C@@H]1C[C@H]2C(=O)NC3(CCC3)C(=O)N(C)[C@@H](C3CCCC3)C(=O)N(CC)[C@H](C(=O)N3CCOCC3)CC(=O)N(C)[C@@H](CO)C(=O)N[C@@H]([C@@H](C)CC)C(=O)N(C)CC(=O)N(C)[C@H]3CCCCCN(C3=O)[C@@H](Cc3ccc(C(F)(F)F)cc3)C(=O)N(C)CC(=O)N[C@@H](CCc3cc(F)c(C(F)(F)F)c(F)c3)C(=O)N2C1 [PP0945] | B (a compound having 3 or more and less than 10 is denoted as B) | A (a compound having 10 or more and less than 20 is denoted as A) |  |
